In article PMC11783601, “Analogue-Sensitive Inhibition of Histone Demethylases Uncovers Member-Specific Function in Ribosomal Protein Synthesis” (Journal of the American Chemical Society, 2025):
Entries after “also recorded” stand apart in the source; their conditions may differ.

How the values were obtained:
[1] = tested on: rRNA transcription in HEK293T cells; test: Fixed cell immunofluorescence staining for H3K9me3 and 5FU (BrdU antibody) incorporation into rRNA; format: cell-based, human
Description: Upregulation of protein synthesis is linked to enhanced ribosomal biogenesis driven by the expression and coordinated assembly of the ribosomal RNAs (rRNAs). To systematically investigate the role of KDM4A in rRNA activation, HEK293T cells expressing wild type KDM4A or asKDM4A were briefly (∼15 min) exposed to 5-fluorouridine (5FU), a uridine analogue known to rapidly incorporate into nascent RNAs, in the presence of cell-permeable n-octyl IOX1 or NOL derivative 6B, respectively (Figure 6A). Given that there are about 350 copies of rDNA in the human genome, brief exposure to 5FU ensures the labeling of rRNAs primarily.[49][52] The cells were then fixed and stained with H3K9me3 antibody, along with BrdU antibody which recognizes 5FU, to examine any correlation between histone demethylation and rRNA expression using high-resolution immunofluorescence imaging. Both wild type KDM4A and F185A mutant led to robust increase in 5FU incorporated rRNA levels, while reduction in H3K9me3 signals was observed (Figures 6B,C and S36). […]
19. Fixed cell immunofluorescence staining
Cells were grown on poly-D-lysine (Gibco A3890401) treated glass coverslips (ThermoScientific 12-545-81P) overnight and transfected the next day with 300 ng KDM4A WT/F185A using […] of lipofectamine 2000 (Invitrogen 11668019). The cells were incubated overnight and treated with indicated inhibitor at varying time points. When probing rRNA transcription, cells were incubated with 2 mM 5-Fluorouridine (Sigma F5130) for 15 minutes. […]
20. Quantification of fixed-cell imaging data
TIF images obtained from confocal microscopy experiments were quantified in ImageJ. […]
The mean fluorescent signal was then measured. […]
For the time dependent imaging, cells containing the transfected KDM4A mutant were identified by their HA signal. […] The mean signal was then measured for H3K9me3 or BrdU only within the cells expressing the KDM4A mutant. To compare changes in H3K9me3 or BrdU between trials, the quantification values were normalized to the mean signal at t=0. […]

PHD2 (EGLN1) = target: T1, PHD2 (EGLN1) (Homo sapiens, UniProt Q9GZT9); test: MALDI-based assay EGLN1 prolyl hydroxylation of peptide; format: biochemical; conditions: MALDI-TOF, peptide substrate
T1 construct: Full length EGLN1 construct plasmid with; TEV-His (N); host or cells: E. coli BL21 (DE3)
Description: demethylation events on the peptide. The percent peak area was calculated, and the K27me2, me1,
and me0 peaks were summed to get the relative percent demethylated peptide.
MALDI-based assay for FTO and ALKBH5: To determine the enzymatic activity of FTO and
ALKBH5 recombinant proteins in the presence of L-Leu NOG 6, a previously published methods
were utilized.15, 18 Briefly,10 µM of each protein was incubated in the presence of 10 µM RNA
7.5, 150 mM KCl, 50 µM L-Leu NOG or equivalent volume of water in 10 µL aliquots. The
samples were placed on ice for 10 minutes followed by addition of 200 µM 2OG or equivalent
volume of water. After incubation at 37 °C for 30 minutes, samples were desalted with 3 µL of BT
spotted on a MALDI plate with 1uL sample and 1uL of 3-HPA matrix and monitored with Bruker
FlexControl in the reflectron negative mode and analyzed on Bruker FlexAnalysis software.
Relative inhibition was monitored via assessing percent product decrease with L-Leu NOG
MALDI-based assay for C14orf169 (NO66) and MINA: To monitor the enzymatic activity of […]
1 µL S-DHB matrix were spotted on a MALDI plate and monitored with Bruker FlexControl in
the reflectron positive mode and analyzed on Bruker FlexAnalysis software. […]
was monitored via assessing percent product decrease with L-Leu NOG samples compared to no […]
monitored following a reported method.19 To monitor the enzymatic activity of EGLN1 and 3 […]

ALKBH2 = target: T2, ALKBH2 (Homo sapiens, UniProt Q6NS38); test: Dot blot-based assay for ALKBH2 on genomic DNA; format: biochemical; conditions: genomic DNA from HEK293T cells, 6 (µM): 100
T2 construct: we recombinantly expressed the catalytic domains of 12 wild type dioxygenases; 6xHis (N); made in house; host or cells: E. coli BL21 (DE3)
T2 sequence (Q6NS38 152-257 limits assumed): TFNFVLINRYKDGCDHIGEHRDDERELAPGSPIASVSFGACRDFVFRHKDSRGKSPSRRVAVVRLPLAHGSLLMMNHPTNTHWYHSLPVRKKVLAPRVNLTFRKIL

T1 sequence (Q9GZT9 whole entry): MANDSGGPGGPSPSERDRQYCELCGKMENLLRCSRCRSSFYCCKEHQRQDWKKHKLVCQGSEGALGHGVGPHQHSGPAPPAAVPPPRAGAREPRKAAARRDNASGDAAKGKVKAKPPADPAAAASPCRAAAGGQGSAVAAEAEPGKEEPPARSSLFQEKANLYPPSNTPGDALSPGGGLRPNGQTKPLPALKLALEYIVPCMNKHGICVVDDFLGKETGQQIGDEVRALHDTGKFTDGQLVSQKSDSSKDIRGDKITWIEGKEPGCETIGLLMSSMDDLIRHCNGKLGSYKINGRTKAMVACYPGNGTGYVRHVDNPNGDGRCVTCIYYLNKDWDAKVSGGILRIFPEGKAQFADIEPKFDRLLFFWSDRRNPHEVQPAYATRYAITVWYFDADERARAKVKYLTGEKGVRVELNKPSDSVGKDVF

CC(C)CC(NC(=O)C(=O)OCc1cccc(C(F)(F)F)c1)C(=O)O [6B, L-Leu TFMB-ester NOG]
5FU incorporation into rRNA ([1]; HEK293T cells expressing F185A): attenuated 5FU incorporation in a dose–response manner | H3K9me3 levels ([1]; HEK293T cells expressing F185A): re-emergence of H3K9me3 levels

CC(C)CC(NC(=O)C(=O)O)C(=O)O (centres unmarked) [compound 6, N-oxalyl leucine]
inhibition of PHD2 (PHD2 (EGLN1)): No inhibition | inhibition of ALKBH2 (ALKBH2): No inhibition

CCCCCCCCOC(=O)c1ccc(O)c2ncccc12 [n-octyl IOX1]
histone demethylation and 5FU incorporation ([1]; HEK293T cells overexpressing wild type KDM4A, 10 µM n-octyl IOX1): inhibited; also recorded: repressed histone demethylation and 5FU incorporation
